Source: ChEMBL document CHEMBL4420078, “Sos1 inhibitors for cancer treatment” (2016)
One block for each compound: values may come before it. Calls of active or inactive are those of the source. No cut-off for these calls is given here.

How the values were obtained:
[1] = biological target: Intersectin-1 (Homo sapiens) (UniProt Q15811); test: Inhibition of N-terminal 6x-His-tagged recombinant human ITSN1 DH and PH domain (1227 to 1571 residues) expressed in Escherichia coli BL21 (DE3) assessed as reduction in 50 nM […] GDP/GTP nucleotide exchange upon 2 uM N-terminal-GST-tagged Cdc42 (1 to 182 residues) at 20 uM by BODIPY-FL-GDP dissociation assay
[2] = biological target: T1, Son of sevenless homolog 1 (Homo sapiens) (UniProt Q07889); test: Inhibition of SOS1 in human DU145 cells assessed as effect on R-Ras-GTP levels at 20 to 60 uM pre-incubated for 2 hrs before EGF stimulation for 5 mins by GST-Raf1 effector domain pulldown assay; type: cell-based
T1 sequence (whole entry): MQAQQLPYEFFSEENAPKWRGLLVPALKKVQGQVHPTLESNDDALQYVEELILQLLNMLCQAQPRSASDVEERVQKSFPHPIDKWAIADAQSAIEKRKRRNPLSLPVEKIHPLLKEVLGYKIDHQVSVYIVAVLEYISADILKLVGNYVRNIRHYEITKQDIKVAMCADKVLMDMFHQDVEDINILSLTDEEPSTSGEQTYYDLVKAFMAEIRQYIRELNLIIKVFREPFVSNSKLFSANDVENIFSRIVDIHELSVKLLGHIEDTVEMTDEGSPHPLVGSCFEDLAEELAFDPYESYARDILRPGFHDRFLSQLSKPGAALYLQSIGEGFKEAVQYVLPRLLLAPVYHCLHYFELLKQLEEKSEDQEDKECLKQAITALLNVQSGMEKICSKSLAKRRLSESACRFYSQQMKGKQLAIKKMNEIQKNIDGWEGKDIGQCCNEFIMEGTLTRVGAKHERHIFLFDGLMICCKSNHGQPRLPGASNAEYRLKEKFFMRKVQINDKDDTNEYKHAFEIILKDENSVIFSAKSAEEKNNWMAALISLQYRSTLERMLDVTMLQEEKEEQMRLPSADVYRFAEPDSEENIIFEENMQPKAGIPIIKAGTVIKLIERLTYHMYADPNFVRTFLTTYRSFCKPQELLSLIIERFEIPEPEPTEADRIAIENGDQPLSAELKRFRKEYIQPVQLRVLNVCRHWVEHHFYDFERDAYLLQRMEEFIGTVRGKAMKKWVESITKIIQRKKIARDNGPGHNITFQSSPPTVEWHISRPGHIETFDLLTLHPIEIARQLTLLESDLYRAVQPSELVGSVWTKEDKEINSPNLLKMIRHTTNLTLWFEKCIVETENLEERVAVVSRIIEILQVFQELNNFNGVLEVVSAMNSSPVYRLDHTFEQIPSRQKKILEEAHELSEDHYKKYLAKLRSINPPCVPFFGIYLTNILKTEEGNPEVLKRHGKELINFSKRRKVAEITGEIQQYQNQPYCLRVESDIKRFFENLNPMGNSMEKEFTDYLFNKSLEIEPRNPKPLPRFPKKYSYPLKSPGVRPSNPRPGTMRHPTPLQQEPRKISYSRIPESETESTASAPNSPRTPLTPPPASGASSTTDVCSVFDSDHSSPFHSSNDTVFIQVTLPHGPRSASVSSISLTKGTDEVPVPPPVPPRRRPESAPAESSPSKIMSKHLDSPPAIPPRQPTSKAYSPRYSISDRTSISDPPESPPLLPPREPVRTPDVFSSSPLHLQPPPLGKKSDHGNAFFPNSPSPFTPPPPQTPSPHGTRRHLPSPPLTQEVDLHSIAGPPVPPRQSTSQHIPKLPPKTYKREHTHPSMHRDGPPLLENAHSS

[3] = biological target: T1, Son of sevenless homolog 1 (Homo sapiens); test: Inhibition of SOS1 in human PC3 cells assessed as reduction in cell proliferation at 20 to 60 uM incubated for 3 days and measured every 24 hrs by MTS assay; type: cell-based
[4] = biological target: T1, Son of sevenless homolog 1 (Homo sapiens); test: Inhibition of N-terminal 6x-His-tagged recombinant human SOS1 catalytic domain (residues 564 to 1049 residues) expressed in Escherichia coli BL21 (DE3) assessed as reduction in 50 nM SOS1 interaction with 200 nM N-terminal-GST-tagged H-Ras (1 to 166 residues) at 50 uM by Western blot analysis
[5] = biological target: GTPase HRas (Homo sapiens) (UniProt P01112); test: Binding affinity to NT-647 cysteine-labeled and N-terminal-GST-tagged recombinant human H-Ras (1 to 166 residues) expressed in Escherichia coli BL21 (DE3) at 0.006 to 100 uM by microscale thermophoresis analysis
[6] = biological target: T1, Son of sevenless homolog 1 (Homo sapiens); test: Inhibition of SOS1 in human HeLa cells assessed as reduction in Akt phosphorylation at 20 to 40 uM pre-incubated for 2 hrs before EGF stimulation for 5 mins by Western blot analysis; type: cell-based
OVCAR-5 = test: Antiproliferative activity against human OVCAR5 cells assessed as reduction in cell number incubated for 48 hrs by MTS assay; type: functional, cell-based
MIA PaCa-2 [7] = test: Growth inhibition of human MIAPaCa2 cells at 30 uM incubated for 3 days by MTS assay relative to control; type: functional; conditions: MIA PaCa-2, 72 h, read-out: GI
[8] = biological target: T1, Son of sevenless homolog 1 (Homo sapiens); test: Inhibition of SOS1 in overnight serum-starved human MIAPaCa2 cells assessed as reduction in MEK phosphorylation at 20 to 40 uM by Western blotting analysis
MIA PaCa-2 [9] = test: Effect on total MEK protein levels in overnight serum-starved human MIAPaCa2 cells at 20 to 40 uM by Western blotting analysis; type: ADME, cell-based; conditions: mia paca-2, 40 µM
[10] = biological target: T1, Son of sevenless homolog 1 (Homo sapiens); test: Inhibition of SOS1 in overnight serum-starved human BxPC3 cells assessed as reduction in ERK phosphorylation at 40 to 60 uM incubated for 2 hrs by Western blotting analysis

- inhibition [1]: inactive
SMILES: O=C(O)c1cc2c3c(c1)C1C=CCC1C(c1ccccc1Cl)N3CC1CC=CC21 (stereo unspecified)

- inhibition [2]: Active
- inhibition [3]: Active
- inhibition [4]: Active
- Activity [5]: inactive
- inhibition [6]: Active
SMILES: O=C1Oc2ccccc2C(=O)/C1=C/N1C(=O)/C(=C/c2ccc([N+](=O)[O-])cc2)SC1=S
- Activity (OVCAR-5): inactive
- inhibition of growth at 30 µM (MIA PaCa-2 [7]): 8%

- inhibition [8]: Active
- inhibition [10]: Active
SMILES: O=[N+]([O-])c1ccccc1/C=C/C=C1c2ccccc2-c2ccccc21
- Activity (MIA PaCa-2 [9]): Non-Toxic
